{"source": "paper PMC5548886", "about": "(Cancer Medicine, 2017)", "experiment_in_all_cases": "IHC of tumor biopsies, H-score change on-treatment vs pretreatment", "type_in_all_cases": "in vivo, human", "key": {"PARP": {"system": "PARP", "method": "(§1) Pharmacodynamic markers were examined using peripheral blood samples, tumor and nevi biopsies (when available) and tumor imaging. BRAF mutation status was determined by Sanger sequencing. Pharmacodynamic markers analyzed, in available tumor/nevus samples obtained before treatment or archival tissue and during treatment on cycle 1, day 8 or day 15, including cytoplasmic p‐MEK, p‐ERK, BIM, c‐KIT, p‐AKT473, pS6 and PTEN, and nuclear p‐ERK, Ki‐67, PARP, cyclin D1, MITF, p27, and p53. Biomarker expression was determined by calculating the percentage of change in the H‐score (14) between on‐treatment and fresh/archival pretreatment specimens. Blood levels of VEGFR‐2 and were assessed before and at multiple time points while on treatment using enzyme‐linked immunosorbent assay (ELISA). […] Changes in standard uptake value (SUV) were determined by a blinded, independent central imaging review panel. Complete metabolic response (CMR) was complete resolution of tumor FDG‐PET uptake so SUV is the same as background. Partial metabolic response (PMR) decrease in sum of the tumor SUV of ≥25% from the baseline scan. Progressive metabolic disease (PMD) was defined as an increase in tumor SUV of ≥25% from the baseline scan, or the appearance of new FDG‐PET uptake in metastatic lesions. Stable metabolic disease (SMD) was defined as a change in tumor SUV between the PMR and PMD criteria."}, "BIM": {"system": "BIM", "method": "as §1"}, "PTEN": {"system": "PTEN", "method": "as §1"}, "pS6": {"system": "pS6", "method": "as §1"}, "p-AKT473": {"system": "p-AKT473", "method": "as §1"}, "cyclin D1": {"system": "cyclin D1", "method": "as §1"}}, "data": [{"smiles": "Cn1c(Nc2ccc(C(F)(F)F)cc2)nc2cc(Oc3ccnc(-c4ncc(C(F)(F)F)[nH]4)c3)ccc21", "note": "[RAF265]", "values": [{"measurement": "PARP % change vs pretreatment, Mean (SD)", "setting": "PARP; All patients, n 14", "value": "+89.1 (172.3) %"}, {"measurement": "PARP % change vs pretreatment, Median", "setting": "PARP; All patients, n 14", "value": "+33.3%"}, {"measurement": "PARP % change vs pretreatment, Mean (SD)", "setting": "PARP; DL 6, n 3", "value": "+20.00 (121.2) %"}, {"measurement": "PARP % change vs pretreatment, Median", "setting": "PARP; DL 6, n 3", "value": 0.00, "unit": "%"}, {"measurement": "PARP % change vs pretreatment, Mean (SD)", "setting": "PARP; DLs 1 - 4, n 8", "value": "+65.1 (180.5) %"}, {"measurement": "PARP % change vs pretreatment, Median", "setting": "PARP; DLs 1 - 4, n 8", "value": -20, "unit": "%"}, {"measurement": "PARP % change vs pretreatment, Mean (SD)", "setting": "PARP; DLs 7 and 7.1, n 3", "value": "+222.2 (167.8) %"}, {"measurement": "PARP % change vs pretreatment, Median", "setting": "PARP; DLs 7 and 7.1, n 3", "value": "+200.00%"}, {"measurement": "BIM % change vs pretreatment, Mean (SD)", "setting": "BIM; All patients, n 14", "value": "-17.00 (54.5) %"}, {"measurement": "BIM % change vs pretreatment, Median", "setting": "BIM; All patients, n 14", "value": 0, "unit": "%"}, {"measurement": "BIM % change vs pretreatment, Mean (SD)", "setting": "BIM; DL 5, n 1", "value": -100, "unit": "%"}, {"measurement": "BIM % change vs pretreatment, Median", "setting": "BIM; DL 5, n 1", "value": -100, "unit": "%"}, {"measurement": "BIM % change vs pretreatment, Mean (SD)", "setting": "BIM; DL 6, n 2", "value": "-7.1 (11.1) %"}, {"measurement": "BIM % change vs pretreatment, Median", "setting": "BIM; DL 6, n 2", "value": -7.1, "unit": "%"}, {"measurement": "BIM % change vs pretreatment, Mean (SD)", "setting": "BIM; DLs 1 - 4, n 8", "value": "-18 (65.1) %"}, {"measurement": "BIM % change vs pretreatment, Median", "setting": "BIM; DLs 1 - 4, n 8", "value": -14.3, "unit": "%"}, {"measurement": "BIM % change vs pretreatment, Mean (SD)", "setting": "BIM; DLs 7 and 7.1, n 3", "value": "+6.7 (5.8) %"}, {"measurement": "BIM % change vs pretreatment, Median", "setting": "BIM; DLs 7 and 7.1, n 3", "value": "+10%"}, {"measurement": "PTEN % change vs pretreatment, Mean (SD)", "setting": "PTEN; All patients, n 18", "value": "-3.16 (32.4) %"}, {"measurement": "PTEN % change vs pretreatment, Median", "setting": "PTEN; All patients, n 18", "value": 0, "unit": "%"}, {"measurement": "PTEN % change vs pretreatment, Mean (SD)", "setting": "PTEN; DL 5, n 2", "value": 0, "unit": "%"}, {"measurement": "PTEN % change vs pretreatment, Median", "setting": "PTEN; DL 5, n 2", "value": 0, "unit": "%"}, {"measurement": "PTEN % change vs pretreatment, Mean (SD)", "setting": "PTEN; DL 6, n 5", "value": "-9.4 (27) %"}, {"measurement": "PTEN % change vs pretreatment, Median", "setting": "PTEN; DL 6, n 5", "value": 0, "unit": "%"}, {"measurement": "PTEN % change vs pretreatment, Mean (SD)", "setting": "PTEN; DLs 1 - 4, n 8", "value": "-5 (44.1) %"}, {"measurement": "PTEN % change vs pretreatment, Median", "setting": "PTEN; DLs 1 - 4, n 8", "value": -7.4, "unit": "%"}, {"measurement": "PTEN % change vs pretreatment, Mean (SD)", "setting": "PTEN; DLs 7 and 7.1, n 3", "value": "10 (17.3) %"}, {"measurement": "PTEN % change vs pretreatment, Median", "setting": "PTEN; DLs 7 and 7.1, n 3", "value": 0, "unit": "%"}, {"measurement": "PS6 % change vs pretreatment, Mean (SD)", "setting": "pS6; All patients, n 19", "value": "+6.9 (70.8) %"}, {"measurement": "PS6 % change vs pretreatment, Median", "setting": "pS6; All patients, n 19", "value": -13, "unit": "%"}, {"measurement": "PS6 % change vs pretreatment, Mean (SD)", "setting": "pS6; DL 5, n 1", "value": "+255.6%"}, {"measurement": "PS6 % change vs pretreatment, Median", "setting": "pS6; DL 5, n 1", "value": "+255.6%"}, {"measurement": "pS6, median decrease", "setting": "pS6; DL 6", "value": 35.8, "unit": "%"}, {"measurement": "PS6 % change vs pretreatment, Mean (SD)", "setting": "pS6; DL 6, n 6", "value": "-20.6 (29.1) %"}, {"measurement": "PS6 % change vs pretreatment, Median", "setting": "pS6; DL 6, n 6", "value": -35.8, "unit": "%"}, {"measurement": "PS6 % change vs pretreatment, Mean (SD)", "setting": "pS6; DLs 1 - 4, n 8", "value": "-16.8 (20.9) %"}, {"measurement": "PS6 % change vs pretreatment, Median", "setting": "pS6; DLs 1 - 4, n 8", "value": -18.9, "unit": "%"}, {"measurement": "PS6 % change vs pretreatment, Mean (SD)", "setting": "pS6; DLs 7 and 7.1, n 4", "value": "33.4 (55.7) %"}, {"measurement": "PS6 % change vs pretreatment, Median", "setting": "pS6; DLs 7 and 7.1, n 4", "value": "+16.3%"}, {"measurement": "PAKT473 % change vs pretreatment, Mean (SD)", "setting": "p-AKT473; All patients, n 19", "value": "+1.2 (105.4) %"}, {"measurement": "PAKT473 % change vs pretreatment, Median", "setting": "p-AKT473; All patients, n 19", "value": -4.6, "unit": "%"}, {"measurement": "PAKT473 % change vs pretreatment, Mean (SD)", "setting": "p-AKT473; DL 5, n 1", "value": -4.6, "unit": "%"}, {"measurement": "PAKT473 % change vs pretreatment, Median", "setting": "p-AKT473; DL 5, n 1", "value": -4.6, "unit": "%"}, {"measurement": "p-AKT, median decrease", "setting": "p-AKT473; DL 6", "value": 46.7, "unit": "%"}, {"measurement": "PAKT473 % change vs pretreatment, Mean (SD)", "setting": "p-AKT473; DL 6, n 4", "value": "-48.4(55.9) %"}, {"measurement": "PAKT473 % change vs pretreatment, Median", "setting": "p-AKT473; DL 6, n 4", "value": -46.7, "unit": "%"}, {"measurement": "PAKT473 % change vs pretreatment, Mean (SD)", "setting": "p-AKT473; DLs 1 - 4, n 11", "value": "+20.1(132.9) %"}, {"measurement": "PAKT473 % change vs pretreatment, Median", "setting": "p-AKT473; DLs 1 - 4, n 11", "value": -20, "unit": "%"}, {"measurement": "PAKT473 % change vs pretreatment, Mean (SD)", "setting": "p-AKT473; DLs 7 and 7.1, n 3", "value": 0, "unit": "%"}, {"measurement": "PAKT473 % change vs pretreatment, Median", "setting": "p-AKT473; DLs 7 and 7.1, n 3", "value": 0, "unit": "%"}, {"measurement": "Cyclin D1 % change vs pretreatment, Mean (SD)", "setting": "cyclin D1; All patients, n 23", "value": "+0.19 (93.7) %"}, {"measurement": "Cyclin D1 % change vs pretreatment, Median", "setting": "cyclin D1; All patients, n 23", "value": -25, "unit": "%"}, {"measurement": "Cyclin D1 % change vs pretreatment, Mean (SD)", "setting": "cyclin D1; DL 5, n 3", "value": "+56.8 (125.6) %"}, {"measurement": "Cyclin D1 % change vs pretreatment, Median", "setting": "cyclin D1; DL 5, n 3", "value": "+5.00%"}, {"measurement": "Cyclin D1 % change vs pretreatment, Mean (SD)", "setting": "cyclin D1; DL 6, n 5", "value": "-49.12 (30.7) %"}, {"measurement": "Cyclin D1 % change vs pretreatment, Median", "setting": "cyclin D1; DL 6, n 5", "value": -48.9, "unit": "%"}, {"measurement": "Cyclin D1 % change vs pretreatment, Mean (SD)", "setting": "cyclin D1; DLs 1 - 4, n 10", "value": "-4.5 (95) %"}, {"measurement": "Cyclin D1 % change vs pretreatment, Median", "setting": "cyclin D1; DLs 1 - 4, n 10", "value": -24, "unit": "%"}, {"measurement": "Cyclin D1 % change vs pretreatment, Mean (SD)", "setting": "cyclin D1; DLs 7 and 7.1, n 5", "value": "+25 (113.6) %"}, {"measurement": "Cyclin D1 % change vs pretreatment, Median", "setting": "cyclin D1; DLs 7 and 7.1, n 5", "value": 0, "unit": "%"}, {"measurement": "cyclin D1, median decrease", "setting": "cyclin D1; in vivo", "value": 25, "unit": "%"}]}]}
